The target in data set [1] is T1, Acid-sensing ion channel 3 (Homo sapiens, UniProt Q9UHC3).
T1 sequence (Q9UHC3 whole entry): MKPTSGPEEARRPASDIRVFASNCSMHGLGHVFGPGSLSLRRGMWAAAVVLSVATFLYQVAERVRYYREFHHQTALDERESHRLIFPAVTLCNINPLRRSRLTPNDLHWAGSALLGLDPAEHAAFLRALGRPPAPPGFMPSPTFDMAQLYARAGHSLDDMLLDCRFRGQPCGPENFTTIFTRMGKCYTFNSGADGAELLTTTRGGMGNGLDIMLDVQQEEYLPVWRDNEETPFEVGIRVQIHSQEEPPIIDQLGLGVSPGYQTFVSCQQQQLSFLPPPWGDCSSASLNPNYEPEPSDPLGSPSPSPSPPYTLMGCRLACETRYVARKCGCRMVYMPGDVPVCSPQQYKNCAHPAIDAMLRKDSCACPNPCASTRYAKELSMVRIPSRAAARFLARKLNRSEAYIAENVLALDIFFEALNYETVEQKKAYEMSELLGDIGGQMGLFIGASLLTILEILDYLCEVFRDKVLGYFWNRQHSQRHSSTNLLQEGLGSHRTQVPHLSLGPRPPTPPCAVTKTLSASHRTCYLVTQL
Description: Inhibition of human ASIC3 expressed in HEK293 cells assessed as inhibition of acid-evoked current by manual patch-clamp electrophysiology assay. It counts as cell-based. (The patch-clamp technique gives a direct electrical read-out from membranes.)

In data set [2] the target is Voltage-dependent L-type calcium channel subunit alpha-1C (Homo sapiens, UniProt Q13936). In words: Inhibition of Cav1.2.
The target in data set [3] is Voltage-gated inwardly rectifying potassium channel KCNH2 (Homo sapiens, UniProt Q12809). In words: Binding affinity to human ERG.
Data set [4] can be described thus: Lipophilicity, log D of the compound by HPLC. It counts as physicochemical.
A short description of data set [5]: Plasma protein binding in human. It counts as ADME, cell-free. As to conditions: read-out: PPB (converted).
A short description of data set [6]: Plasma protein binding in rat. It counts as ADME, cell-free. As to conditions: read-out: PPB (converted).
In another data set the target is CYP3A4 (Homo sapiens, UniProt P08684). Description: Inhibition of CYP3A4 at 10 uM. It counts as ADME.
A further data set addresses CYP2C9 (Homo sapiens, UniProt P11712). Description: Inhibition of CYP2C9 at 10 uM. It counts as ADME.
For another data set, the target named is CYP2D6 (Homo sapiens, UniProt P10635). Description: Inhibition of CYP2D6 at 10 uM. It counts as ADME.
The nature of data set [7]: Clearance in rat. It counts as ADME, organism-based. Conditions: in vivo.
Data set [8] is described as follows: Volume of distribution in rat. It counts as ADME, organism-based. As to conditions: in vivo.
Data set [9] is described as follows: Half life in rat. As to conditions: in vivo. It counts as ADME, organism-based.
In data set [10] the target is T2, Acid-sensing ion channel 3 (Homo sapiens) (UniProt Q9UHC3).
T2 sequence (whole entry): T1 sequence (Q9UHC3 whole entry)
In words: Inhibition of human ASIC3 expressed in HEK293 cells assessed as inhibition of acid-evoked current at 10 uM by manual patch-clamp electrophysiology assay. It counts as cell-based.

Data set [11] concerns the target T2, Acid-sensing ion channel 3 (Homo sapiens). In words: Inhibition of human ASIC3 expressed in HEK293 cells assessed as inhibition of acid-evoked current at 500 uM by manual patch-clamp electrophysiology assay. It counts as cell-based.
Data set [12] has the same target. In words: Inhibition of human ASIC3 expressed in HEK293 cells assessed as inhibition of acid-evoked current at 1000 uM by manual patch-clamp electrophysiology assay. It counts as cell-based.

The values that follow come from ChEMBL document CHEMBL1770137, “High concentration electrophysiology-based fragment screen: discovery of novel acid-sensing ion channel 3 (ASIC3) inhibitors” (Bioorg Med Chem Lett, 2011).

Chain of CYP2C9 (P11712 whole entry): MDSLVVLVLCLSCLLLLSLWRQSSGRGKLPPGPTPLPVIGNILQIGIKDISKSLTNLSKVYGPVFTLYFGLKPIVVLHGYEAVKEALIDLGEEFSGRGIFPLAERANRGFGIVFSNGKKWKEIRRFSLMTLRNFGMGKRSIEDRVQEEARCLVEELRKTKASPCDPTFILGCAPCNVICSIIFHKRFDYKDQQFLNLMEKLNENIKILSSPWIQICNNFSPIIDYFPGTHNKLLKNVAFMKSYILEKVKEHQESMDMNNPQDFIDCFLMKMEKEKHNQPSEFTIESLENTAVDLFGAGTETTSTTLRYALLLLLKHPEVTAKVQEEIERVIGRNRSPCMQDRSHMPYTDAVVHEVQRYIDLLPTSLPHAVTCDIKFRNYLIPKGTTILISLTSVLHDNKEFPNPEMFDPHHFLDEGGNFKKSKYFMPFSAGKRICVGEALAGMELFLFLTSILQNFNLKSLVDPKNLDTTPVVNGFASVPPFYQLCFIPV
Chain of CYP3A4 (P08684 whole entry): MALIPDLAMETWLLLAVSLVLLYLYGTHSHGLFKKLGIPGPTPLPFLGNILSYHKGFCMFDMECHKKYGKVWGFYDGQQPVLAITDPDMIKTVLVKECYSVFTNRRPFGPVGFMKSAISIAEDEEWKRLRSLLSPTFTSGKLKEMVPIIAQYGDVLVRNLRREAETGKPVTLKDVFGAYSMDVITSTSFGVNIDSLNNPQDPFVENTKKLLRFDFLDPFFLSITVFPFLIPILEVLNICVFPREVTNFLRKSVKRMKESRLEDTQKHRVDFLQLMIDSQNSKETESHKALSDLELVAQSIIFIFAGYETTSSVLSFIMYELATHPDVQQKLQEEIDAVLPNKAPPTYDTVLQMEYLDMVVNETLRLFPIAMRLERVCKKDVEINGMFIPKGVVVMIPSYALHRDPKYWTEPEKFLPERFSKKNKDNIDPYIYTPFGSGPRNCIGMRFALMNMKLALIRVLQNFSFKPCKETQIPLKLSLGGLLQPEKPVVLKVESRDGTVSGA
Chain of Voltage-dependent L-type calcium channel subunit alpha-1C (Q13936 whole entry): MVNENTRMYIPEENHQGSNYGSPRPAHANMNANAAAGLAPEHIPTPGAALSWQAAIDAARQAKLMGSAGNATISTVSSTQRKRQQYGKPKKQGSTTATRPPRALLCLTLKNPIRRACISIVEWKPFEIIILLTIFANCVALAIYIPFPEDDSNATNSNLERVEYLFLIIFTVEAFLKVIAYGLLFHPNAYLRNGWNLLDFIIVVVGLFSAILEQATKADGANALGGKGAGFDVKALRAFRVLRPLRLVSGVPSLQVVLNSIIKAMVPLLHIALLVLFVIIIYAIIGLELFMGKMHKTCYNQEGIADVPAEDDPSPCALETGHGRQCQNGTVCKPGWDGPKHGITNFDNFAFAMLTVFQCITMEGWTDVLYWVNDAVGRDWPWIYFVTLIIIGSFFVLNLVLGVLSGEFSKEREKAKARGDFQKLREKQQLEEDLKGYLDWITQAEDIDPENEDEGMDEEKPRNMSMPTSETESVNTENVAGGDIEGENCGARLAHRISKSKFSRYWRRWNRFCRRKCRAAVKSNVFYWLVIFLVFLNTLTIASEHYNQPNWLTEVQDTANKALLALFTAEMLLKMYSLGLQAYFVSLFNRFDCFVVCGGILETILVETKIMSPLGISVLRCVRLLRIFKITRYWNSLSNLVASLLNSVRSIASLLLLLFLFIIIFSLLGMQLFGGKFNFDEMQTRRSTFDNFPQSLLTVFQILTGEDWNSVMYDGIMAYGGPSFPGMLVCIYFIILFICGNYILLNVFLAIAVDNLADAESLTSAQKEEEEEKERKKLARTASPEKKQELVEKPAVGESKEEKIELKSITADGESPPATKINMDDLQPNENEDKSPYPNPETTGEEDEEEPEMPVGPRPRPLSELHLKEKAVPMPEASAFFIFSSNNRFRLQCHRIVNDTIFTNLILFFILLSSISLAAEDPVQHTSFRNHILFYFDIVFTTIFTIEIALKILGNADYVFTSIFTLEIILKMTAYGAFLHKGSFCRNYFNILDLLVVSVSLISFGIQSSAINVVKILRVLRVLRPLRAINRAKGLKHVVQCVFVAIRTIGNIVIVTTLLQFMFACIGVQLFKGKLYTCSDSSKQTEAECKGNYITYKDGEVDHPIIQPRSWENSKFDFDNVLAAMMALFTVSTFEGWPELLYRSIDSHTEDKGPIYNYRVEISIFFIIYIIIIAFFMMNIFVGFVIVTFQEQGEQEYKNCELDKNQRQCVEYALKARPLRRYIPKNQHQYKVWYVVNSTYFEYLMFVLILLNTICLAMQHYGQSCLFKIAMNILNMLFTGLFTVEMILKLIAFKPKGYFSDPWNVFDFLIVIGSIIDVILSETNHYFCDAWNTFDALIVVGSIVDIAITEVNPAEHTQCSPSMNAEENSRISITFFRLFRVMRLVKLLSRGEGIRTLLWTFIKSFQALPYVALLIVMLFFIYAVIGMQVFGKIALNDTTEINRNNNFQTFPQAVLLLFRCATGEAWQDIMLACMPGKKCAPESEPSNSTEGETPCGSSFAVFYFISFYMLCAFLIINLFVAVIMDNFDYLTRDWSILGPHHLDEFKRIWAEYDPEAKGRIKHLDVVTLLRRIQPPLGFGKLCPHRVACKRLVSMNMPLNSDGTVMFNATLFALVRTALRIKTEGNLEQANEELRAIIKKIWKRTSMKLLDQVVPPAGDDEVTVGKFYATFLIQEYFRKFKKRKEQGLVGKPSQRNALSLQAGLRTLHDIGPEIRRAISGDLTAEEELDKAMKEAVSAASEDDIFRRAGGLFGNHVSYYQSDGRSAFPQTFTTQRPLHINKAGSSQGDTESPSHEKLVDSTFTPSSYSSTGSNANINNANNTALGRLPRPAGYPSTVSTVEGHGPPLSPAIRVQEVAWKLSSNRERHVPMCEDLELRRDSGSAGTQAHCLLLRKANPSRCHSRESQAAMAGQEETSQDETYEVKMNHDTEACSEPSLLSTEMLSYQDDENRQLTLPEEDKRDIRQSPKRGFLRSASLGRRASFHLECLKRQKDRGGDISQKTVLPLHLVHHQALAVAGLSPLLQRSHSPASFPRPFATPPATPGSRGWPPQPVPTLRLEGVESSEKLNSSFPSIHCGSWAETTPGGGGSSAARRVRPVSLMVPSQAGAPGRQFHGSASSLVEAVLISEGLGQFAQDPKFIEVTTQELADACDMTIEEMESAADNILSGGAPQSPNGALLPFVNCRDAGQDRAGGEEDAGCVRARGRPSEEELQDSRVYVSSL
Chain of CYP2D6 (P10635 whole entry): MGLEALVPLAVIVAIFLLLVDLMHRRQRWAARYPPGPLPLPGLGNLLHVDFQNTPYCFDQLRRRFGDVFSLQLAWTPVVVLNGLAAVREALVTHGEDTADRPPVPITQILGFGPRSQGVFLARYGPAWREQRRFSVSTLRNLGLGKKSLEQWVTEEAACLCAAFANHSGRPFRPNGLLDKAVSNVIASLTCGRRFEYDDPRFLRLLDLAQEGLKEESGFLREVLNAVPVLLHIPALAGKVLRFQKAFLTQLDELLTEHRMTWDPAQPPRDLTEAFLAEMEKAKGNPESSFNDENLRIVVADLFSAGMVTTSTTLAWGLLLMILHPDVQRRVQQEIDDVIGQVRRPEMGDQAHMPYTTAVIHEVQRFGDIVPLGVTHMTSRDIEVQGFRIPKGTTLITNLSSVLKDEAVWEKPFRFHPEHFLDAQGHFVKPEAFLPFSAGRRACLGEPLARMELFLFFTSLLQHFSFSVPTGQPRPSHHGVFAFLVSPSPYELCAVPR
Chain of Voltage-gated inwardly rectifying potassium channel KCNH2 (Q12809 whole entry): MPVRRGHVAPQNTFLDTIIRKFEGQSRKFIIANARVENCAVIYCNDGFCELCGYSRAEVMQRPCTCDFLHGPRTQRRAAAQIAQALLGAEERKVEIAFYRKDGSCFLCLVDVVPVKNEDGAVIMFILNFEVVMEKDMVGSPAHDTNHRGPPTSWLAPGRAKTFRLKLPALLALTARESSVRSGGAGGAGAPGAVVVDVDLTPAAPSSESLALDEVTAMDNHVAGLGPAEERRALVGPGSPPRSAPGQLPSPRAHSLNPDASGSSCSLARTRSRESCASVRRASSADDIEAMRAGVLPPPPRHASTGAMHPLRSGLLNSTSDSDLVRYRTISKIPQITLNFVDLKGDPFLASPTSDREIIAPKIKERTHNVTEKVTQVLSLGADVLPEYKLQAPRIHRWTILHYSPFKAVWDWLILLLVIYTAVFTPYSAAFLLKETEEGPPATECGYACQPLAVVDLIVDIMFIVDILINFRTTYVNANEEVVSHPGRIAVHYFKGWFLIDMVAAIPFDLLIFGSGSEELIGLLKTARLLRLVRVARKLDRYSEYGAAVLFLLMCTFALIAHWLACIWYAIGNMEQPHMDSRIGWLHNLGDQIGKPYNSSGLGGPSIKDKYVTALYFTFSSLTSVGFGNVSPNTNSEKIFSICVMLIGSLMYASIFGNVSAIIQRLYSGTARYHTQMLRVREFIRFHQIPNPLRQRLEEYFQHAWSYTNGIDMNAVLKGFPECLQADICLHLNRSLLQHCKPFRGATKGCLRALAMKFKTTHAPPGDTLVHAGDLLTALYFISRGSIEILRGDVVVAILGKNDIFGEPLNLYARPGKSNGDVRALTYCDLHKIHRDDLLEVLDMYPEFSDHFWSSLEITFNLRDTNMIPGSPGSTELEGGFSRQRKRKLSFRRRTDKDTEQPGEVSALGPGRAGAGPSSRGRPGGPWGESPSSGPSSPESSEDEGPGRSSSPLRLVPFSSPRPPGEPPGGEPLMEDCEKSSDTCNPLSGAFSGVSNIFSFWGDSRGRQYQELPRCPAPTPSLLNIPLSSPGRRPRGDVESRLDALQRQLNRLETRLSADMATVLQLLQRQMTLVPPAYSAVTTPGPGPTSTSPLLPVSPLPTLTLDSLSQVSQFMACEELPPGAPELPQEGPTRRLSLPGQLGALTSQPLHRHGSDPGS

One may read the IC50 as the concentration that gives 50% inhibition. As to `Nc1ccnc(-c2cccc(C#Cc3ccccc3)c2)c1`, the IC50 in data set [1] was found to be 1.2 µM. On the same count and under the same terms, for `Nc1cc(Cc2ccccn2)nc(-c2ccccc2)c1` the value was 5.8 µM. What is called Ki is the dissociation constant of the complex between target and ligand, obtained from inhibition or displacement. The low end stands for higher affinity, the high end for lower affinity. Broadly, the logD is lipophilicity at a set pH, counting ionised and neutral species. A low value points to lower lipophilicity. The term inhibition denotes the relative decrease from the control value, in per cent. As a reminder, the clearance is the volume of plasma or blood freed of the substance per unit of time. Usually Vd stands for a proportionality between amount in the body and measured concentration, not a real space. Lower therefore signals confinement near the circulation. In general, half-life refers to the time needed for the level to fall by half in the phase considered. High values mean slow decline, low ones rapid decline. As to `Cc1cccc(Nc2ccc(-c3ccc(N4CCNCC4)nc3)cc2)n1`, the IC50 in data set [1] came out at 3.8 µM; in data set [2] it was 20 µM. In [3], this compound displayed a Ki of 0.7 µM. This compound registered a logD in data set [4] of 1.99. Also, the fraction unbound is 0.098 in [5] and 0.007 in data set [6]. Also, the inhibition at 10 µM on CYP3A4, at CYP2C9 and on CYP2D6 was under 45% throughout. In data set [7], the clearance worked out at 11 mL/min/kg. In data set [8], this compound had a Vd of 3.5 L/kg. In data set [9], the half-life was 4.8 h. Consider `COc1cccnc1Nc1cccc(C)n1`, for which, in data set [1], the IC50 was 190 µM. In the case of `CCCc1cc(NC)c2cc(C(=O)NCCc3ccc(Cl)cc3)ccc2n1`, the inhibition in data set [10] was 3%. `Nc1cccc(-c2ccccc2)n1`: the IC50 in [1] turned out to be 763 µM. The same measure, in the same setting: for `Clc1cc(Cl)cc(-c2ccc3c(c2)CCNC3)c1` the value was 3.3 µM. On the same count and under the same terms, for `Cc1cc(N2CCc3cc(Br)ccc3C2)c2ccccc2n1` the value was 27.6 µM; for `NCc1ccc(-c2c[nH]cn2)cc1`, 160 µM; for `CN1CCN(c2ccc(-c3ccc4c(c3)CCNC4)cc2)CC1`, 14.4 µM. Still for that read-out and setting: for `Nc1ccc(-c2c[nH]cn2)cc1` the value was 430 µM. Take `Brc1ccc2c(c1)CCN2`: the inhibition in data set [11] came to 12%.

Regarding `Cc1cccc(Nc2nccc3ccoc23)n1`, the IC50 in [1] turned out to be 9 µM. Still for that read-out and setting: for `COc1ccc2[nH]cc(CN3CCc4cc(Br)ccc4C3)c2c1` the value was 10.9 µM; for `FC(F)(F)c1cccc(-c2ccc3c(c2)CCNC3)c1`, 7.1 µM. For the compound `c1ccc(-c2c[nH]cn2)cc1`, the inhibition in data set [12] turned out to be 66%.

On to `Cc1cccc(Nc2ccc(C#CC(C)(C)O)cc2)n1`, for which, in [1], the IC50 is 17 µM. The same measure, in the same setting: for `Nc1ccnc(-c2cccc(C#CCCO)c2)c1` the value was 2.6 µM; for `NCc1nc2ccccc2s1`, 363 µM.

Take `CCCc1cc(N)c2cc(C(=O)NCCc3ccc(Cl)cc3)ccc2n1`: the IC50 in data set [1] came to 9.6 µM. For the compound `Nc1cc(-c2ccccc2)ncn1`, the IC50 in data set [1] came to 130 µM. Turning to `CC1CCCCN1c1cccc(-c2ccc3c(c2)CCNC3)n1` (stereo unspecified), in data set [1], the IC50 was determined as 1.7 µM.

Consider `c1cc2c(cc1-c1cnc3c(c1)CCN3)CCNC2`, for which, in data set [1], the concentration for half-maximal inhibition (IC50) came out at 19.4 µM. Regarding `CN1CCN(c2ccc(-c3ccc4c(c3)CCNC4)cc2C(F)(F)F)CC1`, the values for the IC50 in data set [1] and in [2] were 3.1 µM and over 30 µM, respectively. The logD in data set [4] was found to be 2.13. For the same compound, the fraction unbound is 0.11 in data set [5] and 0.011 in [6]. Moreover, the inhibition at 10 µM on CYP3A4, at CYP2C9 and against CYP2D6 was under 35% each time.

`NCc1cc2ccccc2s1`: the IC50 in data set [1] stood at 97 µM. For `Brc1ccc2c(c1)CCNC2`, the half-maximal inhibitory concentration (IC50) in [1] was 701 µM. Same read-out and setting: for `Nc1ccnc(-c2ccccc2)c1` the value was 6.9 µM; for `COc1ccc2[nH]cc(CN3CCc4cc(-c5cccc(C(F)(F)F)c5)ccc4C3)c2c1`, 103 µM.
